One molecule from US8183388B2, “Androgen receptor modulator and uses thereof” (Eli Lilly and Company, priority 2009, dated 2012) can be followed below.

Each structure is given as a SMILES string.

The target in test [1] is T1, human MR (mineralocorticoid receptor) (Homo sapiens, UniProt P08235).
T1 construct: expressed in transfected cells; host or cells: HEK293 (lysate, 293-MR)
T1 sequence (P08235 1-984): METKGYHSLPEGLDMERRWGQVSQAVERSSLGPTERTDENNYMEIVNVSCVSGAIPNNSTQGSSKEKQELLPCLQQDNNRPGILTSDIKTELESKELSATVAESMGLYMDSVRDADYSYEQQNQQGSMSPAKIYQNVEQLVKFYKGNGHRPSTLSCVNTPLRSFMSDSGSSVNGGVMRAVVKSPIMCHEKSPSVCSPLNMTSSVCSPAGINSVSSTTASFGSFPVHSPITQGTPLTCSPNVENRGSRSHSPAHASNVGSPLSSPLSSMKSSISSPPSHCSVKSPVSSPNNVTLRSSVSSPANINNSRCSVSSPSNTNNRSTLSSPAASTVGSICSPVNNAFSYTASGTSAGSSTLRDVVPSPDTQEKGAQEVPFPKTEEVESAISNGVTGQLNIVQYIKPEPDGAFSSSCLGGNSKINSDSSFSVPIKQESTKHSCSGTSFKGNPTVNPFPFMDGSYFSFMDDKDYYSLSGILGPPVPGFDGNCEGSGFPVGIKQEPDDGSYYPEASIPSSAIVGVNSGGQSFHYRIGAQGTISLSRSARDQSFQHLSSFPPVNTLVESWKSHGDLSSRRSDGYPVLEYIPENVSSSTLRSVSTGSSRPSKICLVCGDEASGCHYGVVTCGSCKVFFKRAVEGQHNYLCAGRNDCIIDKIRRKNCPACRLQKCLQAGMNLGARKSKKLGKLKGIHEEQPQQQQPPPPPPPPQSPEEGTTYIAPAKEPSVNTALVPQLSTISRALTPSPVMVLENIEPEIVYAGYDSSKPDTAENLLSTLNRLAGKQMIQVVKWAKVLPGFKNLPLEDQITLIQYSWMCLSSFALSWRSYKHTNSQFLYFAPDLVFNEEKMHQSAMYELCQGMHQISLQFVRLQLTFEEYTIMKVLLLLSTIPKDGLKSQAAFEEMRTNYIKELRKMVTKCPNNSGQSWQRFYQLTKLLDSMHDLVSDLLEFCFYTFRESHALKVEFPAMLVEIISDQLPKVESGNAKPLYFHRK
Put plainly: Steroid hormone nuclear receptor binding assay, MR. Conditions: HEK293 lysate overexpressing human MR, [3H]-aldosterone. The protocol: (§1) Cell lysates from human embryonic kidney HEK293 cells overexpressing human MR (mineralocorticoid receptor), GR (glucocorticoid receptor), AR (androgen receptor), or PR (progesterone receptor) are used for receptor-ligand competition binding assays to determine Ki values. Typical procedures are provided below
(§2) Briefly, steroid receptor competition binding assays are run in a buffer containing 20 mM HEPES buffer (pH=7.6), 0.2 mM EDTA, 75 mM NaCl, 1.5 mM MgCl2, 20% glycerol, 20 mM sodium molybdate, 0.2 mM DTT (dithiothreitol), 20 μg/mL aprotinin and 20 μg/mL leupeptin (assay buffer). Typically, steroid receptor binding assays include radio-labeled ligands, such as 0.25 nM [^3H]-aldosterone for MR binding, 0.3 nM [^3H]-dexamethasone for GR binding, 0.36 nM [^3H]-methyltrienolone for AR binding, and 0.29 nM [^3H]-methyltrienolone for PR binding, and either 20 μg 293-MR lysate, 20 μg 293-GR lysate, 22 μg 293-AR lysate, or 40 μg 293-PR lysate per well. Assays are typically run in 96-well format. Competing test compounds are added at various concentrations ranging from about 0.01 nM to 10 μM. Non-specific binding is determined in the presence of 500 nM aldosterone for MR binding, 500 nM dexamethasone for GR binding, or 500 nM methyltrienolone for AR and PR binding. […] After an incubation of 2 hours, plates are read in a Wallac Microbeta counter. […]

Test [2] deals with T2, human PR (progesterone receptor) (Homo sapiens, UniProt P06401).
T2 construct: expressed in transfected cells; host or cells: HEK293 (lysate, 293-PR)
T2 sequence (P06401 1-933): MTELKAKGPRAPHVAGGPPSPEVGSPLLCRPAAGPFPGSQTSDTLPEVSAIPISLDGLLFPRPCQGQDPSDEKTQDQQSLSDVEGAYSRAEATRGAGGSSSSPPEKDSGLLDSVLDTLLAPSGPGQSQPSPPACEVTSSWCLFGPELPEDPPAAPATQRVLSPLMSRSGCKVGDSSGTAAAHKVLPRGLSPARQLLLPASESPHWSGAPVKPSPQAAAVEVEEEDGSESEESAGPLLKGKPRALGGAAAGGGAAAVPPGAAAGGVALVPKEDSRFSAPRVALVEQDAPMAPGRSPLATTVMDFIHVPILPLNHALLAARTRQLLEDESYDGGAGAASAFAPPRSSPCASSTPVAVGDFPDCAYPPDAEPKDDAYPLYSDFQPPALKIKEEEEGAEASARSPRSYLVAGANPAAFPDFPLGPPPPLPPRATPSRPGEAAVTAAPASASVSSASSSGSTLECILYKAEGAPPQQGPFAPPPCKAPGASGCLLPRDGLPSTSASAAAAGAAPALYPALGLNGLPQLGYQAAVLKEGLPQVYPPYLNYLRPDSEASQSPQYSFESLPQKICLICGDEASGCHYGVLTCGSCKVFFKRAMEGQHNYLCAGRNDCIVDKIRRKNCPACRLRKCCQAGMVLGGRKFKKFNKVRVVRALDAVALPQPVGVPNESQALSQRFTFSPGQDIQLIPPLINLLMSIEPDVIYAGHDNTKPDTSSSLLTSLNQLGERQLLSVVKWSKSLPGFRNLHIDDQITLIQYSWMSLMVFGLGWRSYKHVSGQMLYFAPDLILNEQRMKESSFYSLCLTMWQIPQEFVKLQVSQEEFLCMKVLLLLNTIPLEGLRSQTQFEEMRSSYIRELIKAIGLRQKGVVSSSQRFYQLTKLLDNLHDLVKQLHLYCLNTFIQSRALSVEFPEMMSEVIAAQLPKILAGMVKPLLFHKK
The test is described as follows: Steroid hormone nuclear receptor binding assay, PR. Conditions: HEK293 lysate overexpressing human PR, [3H]-methyltrienolone. The protocol:
as §1, §2

For `CC(C)OC(=O)N[C@H]1Cc2c(n(C[C@H]3OCC[C@@H]3O)c3ccc(C#N)cc23)C1` [compound of Formula (I), [(S)-7-Cyano-4-((2R,3S)-3-hydroxytetrahydrofuran-2-ylmethyl)-1,2,3,4-tetrahydrocyclopenta[b]indol-2-yl]-carbamic acid isopropyl ester], the Ki in test [1] and in test [2] was more than 4 µM in each case.
